Source: ChEMBL document CHEMBL3507680, “University of Dundee, Gates Library screen for HepG2 cell viability”

Assay: Human HepG2 cell viability assay in 384 well format
Type: toxicity, cell-based
Design: dose 125 nL, time 70.5 hour; concentration not given beside the values
Conditions: HepG2 cells, read-out: Inhibition
`CC(C)NC(=O)NCc1ccccc1NS(=O)(=O)c1ccccc1` showed a cytotoxicity at 70.5 h of 12.7%. For `Cc1n[nH]cc1CNc1ccc2c(c1)N(C(=O)OC(C)(C)C)CCC2`, the cytotoxicity at 70.5 h was -5.44%. `Cn1cc(N2CCCC(SCc3nc(C4CC4)no3)C2=O)cn1` (stereo not given) showed a cytotoxicity at 70.5 h of 29.8%. Work on `CC(C)(C)Nc1c(C2CCN(C(=O)C3CC3)CC2)nc2ccccn12` yielded a cytotoxicity at 70.5 h of 17.8%. Compound `CC(C(=O)O)N1CC2(CCC1=O)CCN(CCc1ccccc1)CC2` (stereo not given) has a cytotoxicity at 70.5 h of -11%. With `O=C(c1onc2ccccc12)N1CCC2(CCCNC2)C1` (stereo not given) the cytotoxicity at 70.5 h was -16.6%. `O=C(NCC(O)c1cccc(O)c1)C1CCN(C2CCCCC2)CC1` (stereo not given) gave a cytotoxicity at 70.5 h of -11.8%. For `O=C(NCC1(CO)CC1)c1ccccc1C(F)(F)F`, the cytotoxicity at 70.5 h was -9.3%. `CCc1ncc(C(=O)N2CCN(Cc3ncccc3C)CC2)cn1` showed a cytotoxicity at 70.5 h of -14.7%. `CC(C)c1nc(CN(C)S(=O)(=O)c2cccs2)cs1` gave a cytotoxicity at 70.5 h of 1.87%. With `COc1ccc(CC(=O)Nc2ccc3ncn(C)c(=O)c3c2)cc1` the cytotoxicity at 70.5 h was -2.82%. Work on `CC(C)c1nc(C2CCCN(C(=O)c3ccc4[nH]nnc4c3)C2)no1` (stereo not given) yielded a cytotoxicity at 70.5 h of -4%. Compound `O=C1CSC(c2ccc3c(c2)OCO3)c2cn[nH]c2N1` (stereo not given) has a cytotoxicity at 70.5 h of -4%. For `CCN(CC)C(=O)CS(=O)(=O)c1cc(OC)c(OC)cc1C`, the cytotoxicity at 70.5 h was -9.5%. With `CC1CN(C(=O)c2cscn2)c2ccccc2S1` (stereo not given) the cytotoxicity at 70.5 h was 21%. Compound `CCc1n[nH]c(C2CN(C(=O)c3ccc4c(c3)COC4)CCO2)n1` (stereo not given) has a cytotoxicity at 70.5 h of 18%. Work on `COc1ccc(NC(C)=O)c(N2CCN(C(C)=O)CC2)n1` yielded a cytotoxicity at 70.5 h of -0.156%. `c1ccc(CO[C@H]2C[C@@H]3CN(Cc4cccnc4)C[C@@H]3C2)cc1` showed a cytotoxicity at 70.5 h of -3.52%. `CN(C)C1CCN(C(=O)Cc2csc(-c3ncccn3)n2)CC1` gave a cytotoxicity at 70.5 h of 0.448%. Work on `CN(C)CC1(O)CCCN(C(=O)CCc2nc3cccnc3n2C)C1` (stereo not given) yielded a cytotoxicity at 70.5 h of -9.56%. For `CN(C)C(=O)c1ccc2ccc(N3CCN(CC4CC4)CC3)n2c1`, the cytotoxicity at 70.5 h was 19.2%. With `O=C(CC1CCCC1)NCCn1ccc(-c2ccncc2)n1` the cytotoxicity at 70.5 h was 9.19%. Work on `Cc1noc(CCCC(=O)Nc2cc(C(F)(F)F)c[nH]c2=O)n1` yielded a cytotoxicity at 70.5 h of -3.91%. Compound `Cc1nc(CN2CCO[C@@H]3CN(C(=O)CN(C)C)CC[C@@H]3C2)cs1` has a cytotoxicity at 70.5 h of -13.1%. `CCO[C@H]1COC[C@@H]1NC(=O)c1c[nH]nc1C1CCCCC1` showed a cytotoxicity at 70.5 h of 19.5%. In the case of `O=C(CCCSc1ccc(NC(=O)C2CC2)nn1)NCC1CCCO1` (stereo not given), the cytotoxicity at 70.5 h is reported as -14.1%. `COc1ccnc(N2CCN(C(C)c3nc(C)no3)CC2)n1` (stereo not given) showed a cytotoxicity at 70.5 h of 4.57%. Compound `COCCCN1C(=O)CC[C@H]2CN(c3cnc4ccccc4n3)CC[C@H]21` has a cytotoxicity at 70.5 h of 25%. For `CC(NC(=O)Nc1cc(F)cc(F)c1)c1nc[nH]n1` (stereo not given), the cytotoxicity at 70.5 h was -5.9%. `O=C(CNC(=O)c1cnc2ccccc2c1O)NCCn1ccnc1` showed a cytotoxicity at 70.5 h of -6.04%. `N#CCSCCCN1CCC(C(=O)N2CCCCCC2)CC1` gave a cytotoxicity at 70.5 h of -5.04%. With `COCCN1CCc2c(cnc(-c3ccccc3)c2C(=O)O)C1` the cytotoxicity at 70.5 h was -9.19%. `COCCN1CCC2(CCN(Cc3ccc(OC)cc3)CC2)C1=O` showed a cytotoxicity at 70.5 h of -11.1%. Compound `CN(C)S(=O)(=O)N1CCC(C)(c2ncc(C(N)=O)s2)CC1` has a cytotoxicity at 70.5 h of -5.66%. Work on `CCc1cc(=O)[nH]c(-c2ccc(NC(C)COC)nc2)n1` (stereo not given) yielded a cytotoxicity at 70.5 h of 2.74%. With `CC(=O)c1ccn(CC(=O)Nc2nn(CC3CC3)c3ccccc23)n1` the cytotoxicity at 70.5 h was -10.7%. With `CN1CCc2[nH]cnc2C12CCN(Cc1ccc(S(C)(=O)=O)cc1)CC2` the cytotoxicity at 70.5 h was -7.39%. For `Cc1nccn1C1CCCN(C(=O)c2ccc(N(C)C)nn2)C1` (stereo not given), the cytotoxicity at 70.5 h was -4.18%. `CCCn1nc(C)c(CNC(=O)C2COc3c(cccc3OC)C2)c1C` (stereo not given) gave a cytotoxicity at 70.5 h of -10.5%. In the case of `CCN1CCC2(CC1)CC(NC(=O)c1c[nH]cn1)c1ccccc1O2` (stereo not given), the cytotoxicity at 70.5 h is reported as -6.71%. Compound `CC(C)c1nc2cc(NC(=O)Cn3ccc(=O)[nH]c3=O)ccc2o1` has a cytotoxicity at 70.5 h of -8.49%. Work on `COc1ccccc1-n1cc(C(=O)NCCn2nc(C)nc2C)cn1` yielded a cytotoxicity at 70.5 h of -9.92%. In the case of `CCCNC(=O)NC(C)c1ccccn1` (stereo not given), the cytotoxicity at 70.5 h is reported as -11.1%. With `Cc1sc(C(=O)NC(C)C)cc1S(=O)(=O)N(C)C` the cytotoxicity at 70.5 h was -5.26%. Work on `CC(C)C(Sc1nnnn1C1CC1)C(=O)NCc1cccnc1` (stereo not given) yielded a cytotoxicity at 70.5 h of -7.01%.
